Values quoted from earlier work in patent US9512158B2, “Enhanced immunogenicity of tumor associated antigens by addition of alphagal epitopes” (NewLink Genetics Corp., priority 2006, dated 2016).

What was measured:
αGT knockout mice = conditions: cited from earlier work
MHC-I H2-K^b = target: T1, MHC-I H2-K^b (Mus musculus, UniProt P01901); conditions: compared with peptide #1 TWHRYHLL; cited from earlier work
T1 sequence (P01901 22-369): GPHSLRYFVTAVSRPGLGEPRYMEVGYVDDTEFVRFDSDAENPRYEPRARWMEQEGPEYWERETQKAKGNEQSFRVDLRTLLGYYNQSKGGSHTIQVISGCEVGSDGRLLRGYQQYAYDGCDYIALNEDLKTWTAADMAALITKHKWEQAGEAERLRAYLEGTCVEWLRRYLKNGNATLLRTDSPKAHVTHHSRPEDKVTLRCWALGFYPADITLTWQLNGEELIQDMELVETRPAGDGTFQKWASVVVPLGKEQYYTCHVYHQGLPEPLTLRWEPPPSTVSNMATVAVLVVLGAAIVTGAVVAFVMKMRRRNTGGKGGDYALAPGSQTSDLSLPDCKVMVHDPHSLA
T1 sequence (P01887 21-119 partner): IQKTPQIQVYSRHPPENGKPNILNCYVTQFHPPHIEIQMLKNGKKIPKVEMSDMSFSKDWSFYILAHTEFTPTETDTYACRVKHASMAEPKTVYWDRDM

B16 melanoma = conditions: cited from earlier work

Substance | T cell response to BSA (αGT knockout mice; mouse, in vivo) | production of anti-BSA IgG antibodies (αGT knockout mice; without adjuvant) | binding affinity to MHC-I H2-K^b (MHC-I H2-K^b) | protective immunity against B16 melanoma (B16 melanoma; C57Bl/6 mice (H-2K^b), in the presence of adjuvant) | immunogenicity (B16 melanoma; in the absence of adjuvant)
BSA conjugated with αGal: BSA conjugated with αGal | increase | significant production | – | – | –
TAYRYHLL | – | – | better binding affinity | induces protective immunity | not immunogenic
